What was measured:
[1] = test system: pro-inflammatory cytokines/chemokines in subcutaneous abscesses; assay: Pro-inflammatory cytokines and chemokines in subcutaneous abscesses (multiplex ELISA); type: in vivo, female outbred CD-1 mice; conditions: single IM 50 mg/kg at 6 h post-challenge, n = 5
Experimental: At 3 h and 18 h post-treatment (Section 2.4: single IM treatment), mice were euthanized (n = 5 per cohort per time point), then abscess and skin biopsies were collected (Section 2.5), suspended in PBS [2 mL], and homogenized in C tubes (Miltenyi Biotec 130-093-237) using a gentleMACS Dissociator (Miltenyi Biotec 130-093-235, program B). Tissue homogenates were stored at −20 °C until analysis. Homogenized abscess tissues were then analyzed using a V-PLEX Pro-inflammatory Panel 1 Mouse Kit (Meso Scale Diagnostics K15048D-1) on a MESO QuickPlex SQ 120MM (MESO, Rockville, MD, USA) to measure the inflammatory markers of the abscesses.

CA-MRSA USA300 = conditions: cited from earlier work
Text: Consistent with protection, SQ treatment with CPDI-02 increased local levels of IL-1β, IL-6, and CXCL1 and NP recruitment to the abscess. In contrast, SQ treatment of C5aR1 knockout mice with CDPI-02 had no effect against SQ infection with CA-MRSA up to ...

[2] = test system: healthy male and female outbred CD-1 mice; assay: Repeat IM dosing in healthy CD-1 mice; type: in vivo
Experimental: Sixty CD-1 mice (thirty male and thirty female) approximately six weeks old were randomized into six cohorts (three cohorts for each gender) and then intramuscularly administered either vehicle alone (filter-sterilized 0.2 μm endotoxin-free PBS), vehicle containing CPDI-02 at 50% the observed MTD [65 mg/kg], or CPDI-02 suspended in PBS at 100% the observed MTD [130 mg/kg] twice a week over 32 days (nine doses total). Mice were weighed prior to each dose administration. On the day of administration, mice were assigned a Pain and Distress Assessment Score (Table S1). Four days after the last treatment, through terminal cardiac bleed, whole blood was collected for complete blood count (CBC) with differential (Abaxis VetScan® HM5 Hematology Analyzer, Union City, CA, USA) and blood chemistry (Abaxis VetScan® VS-2 Blood Chemistry Analyzer). In addition, injection site muscle tissues were collected, fixed in 10% formalin for 48 h, and then embedded in paraffin. Paraffin samples were cut into sections and underwent an H&E stain, then analyzed for signs of inflammation and other tissue abnormalities utilizing a Nikon Eclipse E600 (Nikon Corporation, Tokyo, Japan) at 200× magnification, and imaged using a Lumenera Infinity 2 Microscope Camera.

CA-MRSA USA300 LAC = assay: CA-MRSA burden of subcutaneous abscesses after single IM treatment; type: in vivo, Staphylococcus aureus; conditions: female CD-1 mice, single IM 50 mg/kg at 6 h post-challenge, Day 1 post-challenge
Experimental: At 24 h post-challenge (Section 2.4: single IM treatment), mice were euthanized (n = 5 per cohort) and rear flanks were disinfected with 70% EtOH. Abscess and skin biopsies (Tru-Punch Sterile Disposable Biopsy Punch Razors, 8 mm^2, Sklar instruments 961130) were suspended in TSB [2 mL] and homogenized in C tubes (Miltenyi Biotec 130-093-237, Bergisch Gladbach, DE) using a gentleMACS Dissociator (Miltenyi Biotec 130-093-235, program B). Homogenized abscess tissues were serially diluted in PBS and plated on TSA plates and incubated at 37 °C for 24 h, and bacterial colonies were counted. Bacterial colony counts per abscess were normalized to starting tissue weights and compared using a Mann–Whitney test (nonparametric t-test). Sections of paraffin-embedded tissues collected above were also Gram-stained and analyzed on a Nikon Eclipse E600 (Minato City, Japan) at 200× magnification and imaged using a Lumenera Infinity 2 Microscope Camera (Ottawa, ON, Canada).

[3] = test system: neutrophils (Ly6G/Ly6C+) and mononuclear phagocytes (F4/80+) in subcutaneous abscesses; assay: Proportions of neutrophils and mononuclear phagocytes in subcutaneous abscesses (quantitative IHC); type: in vivo, female outbred CD-1 mice; conditions: single IM 50 mg/kg at 6 h post-challenge; 18 h post-treatment; n = 3 mice
[4] = test system: healthy male and female outbred CD-1 mice; assay: IM dose escalation in healthy CD-1 mice; type: in vivo
Experimental: Twenty-four CD-1 mice, approximately 4 weeks old, were randomized by weight and sex into four cohorts and then intramuscularly administered either vehicle alone (filter-sterilized 0.2 μm endotoxin-free PBS) or vehicle containing CPDI-02 twice a week over 4 weeks (eight doses total). CPDI-02 doses began at 15 mg/kg and subsequent doses were increased by a conventional modified Fibonacci scheme (increase over previous dose: 100%, 67%, 50%, 40%, 30%, 33%, 33%) to a final dose of 225 mg/kg. Mice were weighed prior to the study and prior to each dose administration. On each dose administration date, mice were assigned a Pain and Distress Assessment Score (Table S1). Four days after the last treatment, mice were euthanized, whole blood was collected for complete blood count (CBC) with differential (VetScan® HM5 Hematology Analyzer), and the thymus, heart, lungs, brain, liver, spleen, kidneys, femur bone marrow, popliteal lymph nodes, Peyer’s patches, and injection site muscle (left caudal thigh muscle) were collected. Collected tissues were fixed in 10% formalin for 48 h and then embedded in paraffin. Before embedment in paraffin, femur bone marrow samples underwent decalcification by shaking in 10% formic acid for 8 h. Paraffin samples were cut into sections and underwent a Hematoxylin and Eosin (H&E) stain, then analyzed for signs of inflammation and other tissue abnormalities utilizing a Nikon Eclipse E600 at 40× magnification, and imaged using a Lumenera Infinity 2 Microscope Camera.

CSCC[C@H](NC(=O)[C@H](CC(=O)O)NC(=O)[C@H](CCCCN)NC(=O)[C@H](Cc1ccccc1)NC(=O)[C@H](CO)NC(=O)[C@@H](N)Cc1ccc(O)cc1)C(=O)N1CCC[C@H]1C(=O)N(C)[C@@H](CC(C)C)C(=O)N[C@H](C)C(=O)N[C@@H](CCCNC(=N)N)C(=O)O [CPDI-02]
levels of IFN-γ, IL-2, IL-4, IL-5, IL-6, IL-10, IL-12p70, CXCL-1 [KC/GRO], TNF-α in subcutaneous abscesses ([1]; 3 h and 18 h post-treatment): no effect | levels of IL-1β in subcutaneous abscesses vs vehicle alone ([1]; 3 h post-treatment): decreased | effect against SQ infection with CA-MRSA vs inactive scCPDI-02 (CA-MRSA USA300; C5aR1 knockout mice, SQ treatment, up to 48 h post-challenge): no effect | local levels of IL-1β, IL-6 and CXCL1 and NP recruitment to the abscess (CA-MRSA USA300; outbred mice, prophylactic SQ treatment): increased | maximum abscess surface area, CA-MRSA load per gram of tissue and time to abscess resolution vs inactive scCPDI-02 (CA-MRSA USA300; outbred mice, repeat SQ treatment before and after SQ challenge, three injections total, 12.5 mg/kg): significantly decreased | inflammation around the injection site vs vehicle alone ([2]; IM 65 and 130 mg/kg, dose-dependent, greater proportion of female than male mice, H&E): increased signs of mild to severe inflammation | mortality vs vehicle alone ([2]; female mice, repeat IM 130 mg/kg, after the eighth and ninth IM injection, p = 0.0022): increased mortality | signs of distress up to 2 h after injection ([2]; male and female CD-1 mice, IM 65 or 130 mg/kg, 9 injections, any treatment group): No signs of distress | weight gain ([2]; male or female CD-1 mice, IM 65 or 130 mg/kg twice per week over 32 days, 9 injections, n = 10): no effect | effect on CBC (including platelets, platecrit) or blood chemistry vs vehicle alone ([2]; male or female mice, IM 65 or 130 mg/kg, up to 4 days after final injection (Day 32), n = 5): did not | inflammation in thymus, heart, lungs, brain, liver, spleen, kidneys, femur bone marrow, popliteal lymph nodes, Peyer's patches ([2]; repeat IM 65 or 130 mg/kg, H&E): no signs of inflammation | detectable CA-MRSA in subcutaneous abscesses (Gram staining) vs vehicle (CA-MRSA USA300 LAC; histochemistry): qualitatively decreased | CA-MRSA CFU/g of abscess tissue (CA-MRSA USA300 LAC; mean ± SD, vehicle 3 × 10^6 ± 2 × 10^6, SD): 1.8 × 10^6 ± 0.8 × 10^6 CFU/g of abscess tissue | increase of ratio of MPs (F4/80+) to total cells (DAPI+) vs vehicle alone [3]: 4 fold | increase of ratio of mononuclear phagocytes to neutrophils (Ly6G/Ly6C+) vs vehicle alone [3]: 7 fold | ratio of NPs (Ly6G/Ly6C+) to total cells (DAPI+) in subcutaneous abscesses vs vehicle alone [3]: similar | weight gain or survival ([4]; male and female CD-1 mice, IM twice a week, 15 up to 225 mg/kg over 28 days, 8 doses, n = 6): did not affect | mice with signs of inflammation around the injection site ([4]; male mice, four days after final dose, H&E, vehicle none): 50% | mice with signs of inflammation around the injection site ([4]; mouse, in vivo): 83% | signs of inflammation in thymus, heart, lungs, brain, liver, spleen, kidneys, femur bone marrow, popliteal lymph nodes, Peyer's patches ([4]; mouse, in vivo): did not increase | platecrit vs vehicle alone ([4]; mouse, in vivo, 225 mg/kg): decreased | platelets vs vehicle alone ([4]; mouse, in vivo, 225 mg/kg): decreased

From paper PMC11677424, “Early-Stage IM Treatment with the Host-Derived Immunostimulant CPDI-02 Increases Curative Protection of Healthy Outbred Mice Against Subcutaneous Infection with Community-Acquired Methicillin-Resistant Staphylococcus aureus USA300” (Pharmaceutics, 2024)
